The text below walks through data of patent publication US6949682B2, “Cinnamaldehyde derivatives inhibiting growth of tumor cell and regulating cell cycle, preparations and pharmaceutical compositions thereof” (Korea Research Institute of Bioscience and Biotechnology, priority 2003, dated 2005).

Data set [1] relates to SW620 colon cancer cell. As to the kind of experiment: Cell cycle analysis (Experimental Example 1), SW620. In kind it is cell-based, human. Particulars: SW620, 1 μM, 48 hours, percentage of cells in G2/M. As for the experimental part: (§1) Colon cancer cell of human SW620(ATCC) or HCT116 (ATCC) was transferred to T25 flask(culture 7.5 ml) by RPMI1640 (Gibco/BR) medium or DMEM medium (Gibco/BR) containing 10% FBS (fetal bovine serum), respectively. Thereafter the cell was incubated for 12 hours at 37° C. in incubator. After the cell was incubated for 12 hours, 7.5 μl of DMSO was added to a culture used as control group, for the final concentration to be 0.1%. In order to use in experiment, samples of various concentrations were prepared by dissolving the cinnamaldehyde derivatives of the present invention in DMSO. 7.5 μl of the prepared samples was added to a culture used as experimental group. Cell of control or experimental group was incubated for 48 hours.
(§2) For cell cycle analysis, incubated cell was removed from medium. Thereafter the incubated cell was separated from the flask by trypsin. Thus the cell was centrifuged at 300 g for 5 min. The cell was washed with phosphate buffer solution (PBS) to remove the residue medium from the cell. 3 ml of ethanol (70%) was added to the cell. The cell was fixed by being positioned at −20° C. for 12 hours. The fixed cell was centrifuged at 300 g for 3 min and washed with the cold PBS for two times to remove residual ethanol. The cell solution prepared by adding 500 μl of PBS to the cell was well mixed to produce the homogeneous state. 100 μg/ml RNase A 50 μl was added to the cell solution, thereafter the resulting cell solution was positioned at 37° C. for 30 min. The chromosomal DNA was stained by further adding 1 mg/ml propidium iodide (soluble in PBS) thereto.
(§3) Distribution of cell cycle of 20,000 stained cells were measured by using Becton-Dickinson FACS caliber (San Jose, Calif., USA).

Data set [2] has as its system SW620 colon cancer cell. As to the kind of experiment: Growth inhibition of SW620 colon cancer cell (GI50). In kind it is cell-based, human. The conditions noted are these: Homo sapiens, SW-620; concentration at which growth of SW620 colon cancer cell was inhibited to the 50%. As for the experimental part: as §1
(§4) HCT116 GI50 (μM) and SW620 GI50 (μM) mean to be the concentrations at which growth of HCT116 and SW620 colon cancer cell was inhibited to the 50%, respectively.

The subject of data set [3] is HCT116 colon cancer cell. As to the kind of experiment: Cell cycle analysis (Experimental Example 1), HCT116. The conditions noted are these: HCT116, 1 μM, 48 hours, percentage of cells in G2/M. In kind it is cell-based, human. On the procedure: as §1, §2, §3
The test system of data set [4] is HCT116 colon cancer cell. As to the kind of experiment: Growth inhibition of HCT116 colon cancer cell (GI50). It counts as cell-based, human. Particulars: Homo sapiens, HCT-116; concentration at which growth of HCT116 colon cancer cell was inhibited to the 50%. On the procedure: as §1, §4

The GI50 is the concentration at which growth is held to half of that of the control. Read a high GI50 as less potent growth inhibition. A word on the melting point: it is the temperature of the solid-liquid transition. Consider `CC(C)Oc1cccc(C=C(C=O)C(C=O)=Cc2cccc(OC(C)C)c2)c1` [Compound 21, 2,3-bis-(3-isopropyloxy-benzylidene)succinaldehyde], for which the melting point was in the range of 116 to 117 °C. Moreover, in the data set with SW620 colon cancer cell [1], the “G2/M at 1 μM(%) SW620” value is given as 74%. It took 0.61 µM to inhibit growth in the data set on SW620 colon cancer cell [2] by half (GI50). For the same compound, the “G2/M at 1 μM(%) HCT116” value in the data set with HCT116 colon cancer cell [3] worked out at 75%. Also, in the data set with HCT116 colon cancer cell [4], it took 4.23 µM to inhibit growth by half (GI50).
For `O=CC(=Cc1cccc(OCc2ccccc2)c1)C(C=O)=Cc1cccc(OCc2ccccc2)c1` [Compound 22, 2,3-bis-(3-benzyloxy-benzylidene)succinaldehyde], in that order: 126 to 127 °C, 65%, 3.58 µM, 68% and 7.59 µM.
In the same order, the values of `CCCOc1ccc(C=C(C=O)C(C=O)=Cc2ccc(OCCC)c(OC)c2)cc1OC` [Compound 23, 2,3-bis-(4-propyloxy-3-methoxybenzylidene)succinaldehyde] are 95 to 96 °C, 56%, 2.28 µM, 50% and 0.62 µM.
`COc1cc(C=C(C=O)C(C=O)=Cc2ccc(OC(C)C)c(OC)c2)ccc1OC(C)C` [Compound 24, 2,3-bis-(4-isopropyloxy-3-methoxy-benzylidene)succinaldehyde] had a melting point of 119 to 120 °C. In addition, the “G2/M at 1 μM(%) SW620” value in the data set with SW620 colon cancer cell [1] is listed as 55%. Moreover, halving of growth in the data set on SW620 colon cancer cell [2] (GI50) required 0.91 µM. Also, the “G2/M at 1 μM(%) HCT116” value in the data set with HCT116 colon cancer cell [3] came out at 48%. In the data set with HCT116 colon cancer cell [4], this compound gave a concentration for 50% growth inhibition (GI50) of 0.71 µM.
For `COc1cc(C=C(C=O)C(C=O)=Cc2ccc(OC(C)=O)c(OC)c2)ccc1OC(C)=O` [Compound 25, 2,3-bis-(4-acetyloxy-3-methoxy-benzylidene)succinaldehyde], in that order: 149 to 151 °C, 48%, 66.3 µM, 43% and 17.7 µM.
With `COc1cc(C=C(C=O)C(C=O)=Cc2ccc(OC(=O)c3ccccc3)c(OC)c2)ccc1OC(=O)c1ccccc1` [Compound 27, 2,3-bis-(4-benzoyloxy-3-methoxy-benzylidene)succinaldehyde], the melting point lay within 107 to 110 °C. Also, the “G2/M at 1 μM(%) SW620” value with SW620 colon cancer cell [1] is reported as 77%. This compound yielded a GI50 in the data set on SW620 colon cancer cell [2] of 13.9 µM. For the same compound, the “G2/M at 1 μM(%) HCT116” value with HCT116 colon cancer cell [3] came to 79%. In the data set with HCT116 colon cancer cell [4], this compound registered a 50% growth inhibitory concentration (GI50) of 2.95 µM.
In the same order, the values of `CC(C)Oc1ccc(C=C(C=O)C(C=O)=Cc2ccc(OC(C)C)cc2)cc1` [Compound 29, 2,3-bis-(4-isopropyloxy-benzylidene)succinaldehyde] are 200 to 202 °C, 47%, 1.06 µM, 49% and 0.82 µM.
For `O=CC(=Cc1ccc(OCc2ccccc2)cc1)C(C=O)=Cc1ccc(OCc2ccccc2)cc1` [Compound 31, 2,3-bis-(4-benzyloxy-benzylidene)succinaldehyde], in that order: 119 to 120 °C, 62%, 7.38 µM, 64% and 3.58 µM.
The compound `O=CC(=Cc1ccc(OC(=O)c2ccccc2)cc1)C(C=O)=Cc1ccc(OC(=O)c2ccccc2)cc1` [Compound 32, 2,3-bis-(4-benzoyloxy-benzylidene)succinaldehyde] returned a melting point of 207 to 208 °C. For the same compound, in the data set with SW620 colon cancer cell [1], the “G2/M at 1 μM(%) SW620” value amounted to 52%. In the data set on SW620 colon cancer cell [2], this compound yielded a concentration for 50% growth inhibition (GI50) of 5.97 µM. Besides, the “G2/M at 1 μM(%) HCT116” value in the data set on HCT116 colon cancer cell [3] is 56%. This compound also registered a GI50 in the data set on HCT116 colon cancer cell [4] of 11.9 µM.
In the same order, the values of `O=CC(=Cc1ccc(OC(=O)c2ccccc2F)cc1)C(C=O)=Cc1ccc(OC(=O)c2ccccc2F)cc1` [Compound 33, 2,3-bis-(4-(2-fluorobenzoyloxy)benzylidene)succinaldehyde] are 197 to 199 °C, 71%, 5.57 µM, 72% and 7.43 µM.
